Test results published in patent US7943651B2, “Compounds” (Glaxo Group Limited, priority 2006, dated 2011).

Test system: NFkB activity
Test: Glucocorticoid Mediated Transrepression of NFkB Activity
Format: cell-based
Conditions: Human A549 lung epithelial cells, NFkB dependent ELAM promoter alkaline phosphatase reporter, 3 ng/ml TNFα
Source text: Glucocorticoid Mediated Transrepression of NFkB Activity
Human A549 lung epithelial cells were engineered to contain a secreted placental alkaline phosphatase gene under the control of the distal region of the NFkB dependent ELAM promoter as previously described in Ray, K. P., Farrow, S., Daly, M., Talabot, F. and Searle, N. “Induction of the E-selectin promoter by interleukin 1 and tumour necrosis factor alpha, and inhibition by glucocorticoids” Biochemical Journal (1997) 328: 707-15.
Compounds were solvated and diluted in DMSO, and transferred directly into assay plates such that the final concentration of DMSO was 0.7%. Following the addition of cells (40K per well), plates were incubated for 1 hr prior to the addition of 3 ng/ml human recombinant TNFα. Following continued incubation for 16 hr, alkaline phosphatase activity was determined by measuring the change in optical density at 405 nm with time following the addition of 0.7 volumes of assay buffer (1 mg/ml p-nitrophenylphosphate dissolved in 1M diethanolamine, 0.28M NaCl, 0.5 mM MgCl2). Dose response curves were constructed from which EC50 values were estimated.

EC50, < 3.16 nM:
Cc1cc(NCC(O)(CC(C)(C)c2cc(F)ccc2O)C(F)(F)F)c2cnn(-c3cccc(C(=O)N(C)CC(N)=O)c3)c2c1 (stereo not shown) [Example 9, N-(2-Amino-2-oxoethyl)-3-(4-{[4-(5-fluoro-2-hydroxyphenyl)-2-hydroxy-4-methyl-2-(trifluoromethyl)pentyl]amino}-6-methyl-1H-indazol-1-yl)-N-methylbenzamide]
COc1ccc(F)cc1C(C)(C)CC(O)(CNc1cc(C)cc2c1cnn2-c1cccc(C(=O)N2CCC[C@@H]2C(N)=O)c1)C(F)(F)F (mixture of isomers) [Example 7, 1-{[3-(4-{[4-[5-Fluoro-2-(methyloxy)phenyl]-2-hydroxy-4-methyl-2-(trifluoromethyl)pentyl]amino}-6-methyl-1H-indazol-1-yl)phenyl]carbonyl}-D-prolinamide]
COc1ccc(F)cc1C(C)(C)CC(O)(CNc1cc(C)cc2c1cnn2-c1cccc(C(=O)N2CCC[C@H]2C(N)=O)c1)C(F)(F)F (stereo partly drawn) [Example 6, 1-{[3-(4-{[4-[5-Fluoro-2-(methyloxy)phenyl]-2-hydroxy-4-methyl-2-(trifluoromethyl)pentyl]amino}-6-methyl-1H-indazol-1-yl)phenyl]carbonyl}-L-prolinamide]
Cc1cc(NCC(O)(CC(C)(C)c2cc(F)ccc2O)C(F)(F)F)c2cnn(-c3cccc(C(=O)NCC(N)=O)c3)c2c1 (stereo not shown) [Example 10, N-(2-Amino-2-oxoethyl)-3-(4-{[4-(5-fluoro-2-hydroxyphenyl)-2-hydroxy-4-methyl-2-(trifluoromethyl)pentyl]amino}-6-methyl-1H-indazol-1-yl)benzamide]
COc1ccc(F)cc1C(C)(C)CC(O)(CNc1cc(C)cc2c1cnn2-c1cccc(C(=O)NCC(N)=O)c1)C(F)(F)F (racemic) [Example 1, N-(2-Amino-2-oxoethyl)-3-(4-{[4-[5-fluoro-2-(methyloxy)phenyl]-2-hydroxy-4-methyl-2-(trifluoromethyl)pentyl]amino}-6-methyl-1H-indazol-1-yl)benzamide]
COc1ccc(F)cc1C(C)(C)CC(O)(CNc1cc(C)cc2c1cnn2-c1cccc(C(=O)N(C)[C@H](C)C(N)=O)c1)C(F)(F)F (stereo partly drawn) [Example 15, N-[(1R)-2-Amino-1-methyl-2-oxoethyl]-3-(4-{[4-[5-fluoro-2-(methloxy)phenyl]-2-hydroxy-4-methyl-2-(trifluoromethyl)-pentyl]amino}-6-methyl-1H-indazol-1-yl)-N-methylbenzamide]
COc1ccc(F)cc1C(C)(C)C[C@@](O)(CNc1cc(C)cc2c1cnn2-c1cccc(C(=O)N2CCC[C@@H]2C(N)=O)c1)C(F)(F)F (single isomer, unassigned) [Example 7-A]
COc1ccc(F)cc1C(C)(C)CC(O)(CNc1cc(C)cc2c1cnn2-c1cccc(C(=O)NCC(N)=O)c1)C(F)(F)F (single isomer, unassigned) [Example 1-A, N-(2-amino-2-oxoethyl)-3-(4-{[4-[5-fluoro-2-(methyloxy)phenyl]-2-hydroxy-4-methyl-2-(trifluoromethyl)pentyl]amino}-6-methyl-1H-indazol-1-yl)benzamide]
COc1ccc(F)cc1C(C)(C)CC(O)(CNc1cc(C)cc2c1cnn2-c1cccc(C(=O)NC(C)(C)C(N)=O)c1)C(F)(F)F (racemic) [Example 5, N-(2-Amino-1,1-dimethyl-2-oxoethyl)-3-(4-{[4-[5-fluoro-2-(methyloxy)phenyl]-2-hydroxy-4-methyl-2-(trifluoromethyl)pentyl]amino}-6-methyl-1H-indazol-1-yl)benzamide]
Cc1cc(NC[C@](O)(CC(C)(C)c2cc(F)ccc2O)C(F)(F)F)c2cnn(-c3cccc(C(=O)N4CCC[C@@H]4C(N)=O)c3)c2c1 [Example 17, 1-{[3-(4-{[(2R)-4-(5-Fluoro-2-hydroxyphenyl)-2-hydroxy-4-methyl-2-(trifluoromethyl)pentyl]amino}-6-methyl-1H-indazol-1-yl)phenyl]carbonyl}-D-prolinamide]
COc1ccc(F)cc1C(C)(C)CC(O)(CNc1cc(C)cc2c1cnn2-c1cccc(C(=O)N(C)CC(N)=O)c1)C(F)(F)F (racemic) [Example 2, N-(2-Amino-2-oxoethyl)-3-(4-{[4-[5-fluoro-2-(methyloxy)phenyl]-2-hydroxy-4-methyl-2-(trifluoromethyl)pentyl]amino}-6-methyl-1H-indazol-1-yl)-N-methylbenzamide]
COc1ccc(F)cc1C(C)(C)CC(O)(CNc1cc(C)cc2c1cnn2-c1cccc(C(=O)N[C@H](C)C(N)=O)c1)C(F)(F)F (single isomer, unassigned) [Example 3-A]
COc1ccc(F)cc1C(C)(C)CC(O)(CNc1cc(C)cc2c1cnn2-c1cccc(C(=O)N[C@H](CO)C(N)=O)c1)C(F)(F)F (stereo partly drawn) [Example 16, N-[(1R)-2-Amino-1-(hydroxymethyl)-2-oxoethyl]-3-(4-{[4-[5-fluoro-2-(methloxy)phenyl]-2-hydroxy-4-methyl-2-(trifluoromethyl)pentyl]amino}-6-methyl-1H-indazol-1-yl)benzamide]
COc1ccc(F)cc1C(C)(C)CC(O)(CNc1cc(C)cc2c1cnn2-c1cccc(C(=O)N[C@@H](CO)C(N)=O)c1)C(F)(F)F (stereo partly drawn) [Example 8, N-[(1S)-2-Amino-1-(hydroxymethyl)-2-oxoethyl]-3-(4-{[4-[5-fluoro-2-(methloxy)phenyl]-2-hydroxy-4-methyl-2-(trifluoromethyl)pentyl]amino}-6-methyl-1H-indazol-1-yl)benzamide]
COc1ccc(F)cc1C(C)(C)CC(O)(CNc1cc(C)cc2c1cnn2-c1cccc(C(=O)N[C@H](C)C(N)=O)c1)C(F)(F)F (mixture of isomers) [Example 3, N-[(1R)-2-Amino-1-methyl-2-oxoethyl]-3-(4-{[4-[5-fluoro-2-(methyloxy)phenyl]-2-hydroxy-4-methyl-2-(trifluoromethyl)pentyl]amino}-6-methyl-1H-indazol-1-yl)benzamide]
Cc1cc(NCC(O)(CC(C)(C)c2cc(F)ccc2O)C(F)(F)F)c2cnn(-c3cccc(C(=O)N4CCC[C@@H]4C(N)=O)c3)c2c1 (stereo partly drawn) [Example 12, 1-{[3-(4-{[4-(5-Fluoro-2-hydroxyphenyl)-2-hydroxy-4-methyl-2-(trifluoromethyl)pentyl]amino}-6-methyl-1H-indazol-1-yl)phenyl]carbonyl}-D-prolinamide]
Cc1cc(NCC(O)(CC(C)(C)c2cc(F)ccc2O)C(F)(F)F)c2cnn(-c3cccc(C(=O)N[C@H](C)C(N)=O)c3)c2c1 (stereo partly drawn) [Example 11, N-[(1R)-2-Amino-1-methyl-2-oxoethyl]-3-(4-{[4-(5-fluoro-2-hydroxyphenyl)-2-hydroxy-4-methyl-2-(trifluoromethyl)pentyl]amino}-6-methyl-1H-indazol-1-yl)benzamide]
COc1ccc(F)cc1C(C)(C)CC(O)(CNc1cc(C)cc2c1cnn2-c1cccc(C(=O)N[C@@H](C)C(N)=O)c1)C(F)(F)F (stereo partly drawn) [Example 4, N-[(1S)-2-Amino-1-methyl-2-oxoethyl]-3-(4-{[4-[5-fluoro-2-(methyloxy)phenyl]-2-hydroxy-4-methyl-2-(trifluoromethyl)pentyl]amino}-6-methyl-1H-indazol-1-yl)benzamide]
COc1ccc(F)cc1C(C)(C)CC(O)(CNc1cc(C)cc2c1cnn2-c1cccc(C(=O)NC(C)(C)C(N)=O)c1)C(F)(F)F (single isomer, unassigned) [Example 5-A, N-(2-amino-1,1-dimethyl-2-oxoethyl)-3-(4-{[4-[5-fluoro-2-(methyloxy)phenyl]-2-hydroxy-4-methyl-2-(trifluoromethyl)pentyl]amino}-6-methyl-1H-indazol-1-yl)benzamide]
COc1ccc(F)cc1C(C)(C)CC(O)(CNc1cc(C)cc2c1cnn2-c1cccc(C(=O)N(C)CC(N)=O)c1)C(F)(F)F (single isomer, unassigned) [Example 2-A, N-(2-amino-2-oxoethyl)-3-(4-{[4-[5-fluoro-2-(methyloxy)phenyl]-2-hydroxy-4-methyl-2-(trifluoromethyl)pentyl]amino}-6-methyl-1H-indazol-1-yl)-N-methylbenzamide]
COc1ccc(F)cc1C(C)(C)CC(O)(CNc1cc(C)cc2c1cnn2-c1cccc(C(=O)N(C)[C@@H](C)C(N)=O)c1)C(F)(F)F (stereo partly drawn) [Example 14, N-[(1S)-2-Amino-1-methyl-2-oxoethyl]-3-(4-{[4-[5-fluoro-2-(methloxy)phenyl]-2-hydroxy-4-methyl-2-(trifluoromethyl)pentyl]amino}-6-methyl-1H-indazol-1-yl)-N-methylbenzamide]
CNC(=O)CNC(=O)c1cccc(-n2ncc3c(NCC(O)(CC(C)(C)c4cc(F)ccc4OC)C(F)(F)F)cc(C)cc32)c1 (stereo not shown) [Example 13, 3-(4-{[4-[5-Fluoro-2-(methyloxy)phenyl]-2-hydroxy-4-methyl-2-(trifluoromethyl)pentyl]amino}-6-methyl-1H-indazol-1-yl)-N-[2-(methylamino)-2-oxoethyl]benzamide]
